Values after ≈ are worked out from the molar mass of the structure shown. Active and inactive are the calls of the source. No cut-off for these calls is given here.
Columns and labels:
[1] = system: Mycobacterium tuberculosis; experiment: Antimycobacterial activity against extensively drug-resistant Mycobacterium tuberculosis isolate 2911 obtained from sputum of patient at 2 ug/ml by Bactec MGIT960 modified proportion method; assay type: functional, organism-based
[2] = system: Mycobacterium tuberculosis; experiment: Antimycobacterial activity against extensively drug-resistant Mycobacterium tuberculosis isolate 2301 obtained from sputum of patient at 2 ug/ml by Bactec MGIT960 modified proportion method; assay type: functional, organism-based
[3] = system: Mycobacterium tuberculosis; experiment: Antimycobacterial activity against extensively drug-resistant Mycobacterium tuberculosis isolate 2403 obtained from sputum of patient at 2 ug/ml by Bactec MGIT960 modified proportion method; assay type: functional, organism-based
[4] = system: Mycobacterium tuberculosis; experiment: Antimycobacterial activity against extensively drug-resistant Mycobacterium tuberculosis isolate 625 obtained from sputum of patient at 2 ug/ml by Bactec MGIT960 modified proportion method; assay type: functional, organism-based
[5] = system: Mycobacterium tuberculosis; experiment: Antimycobacterial activity against extensively drug-resistant Mycobacterium tuberculosis isolate 761 obtained from pus of patient at 2 ug/ml by Bactec MGIT960 modified proportion method; assay type: functional, organism-based
[6] = system: Mycobacterium tuberculosis; experiment: Antimycobacterial activity against extensively drug-resistant Mycobacterium tuberculosis isolate 761 obtained from pus of patient at 100 ug/ml by Bactec MGIT960 modified proportion method; assay type: functional, organism-based
[7] = system: Mycobacterium tuberculosis; experiment: Antimycobacterial activity against extensively drug-resistant Mycobacterium tuberculosis isolate 2474 obtained from sputum of patient at 100 ug/ml by Bactec MGIT960 modified proportion method; assay type: functional, organism-based
[8] = system: Mycobacterium tuberculosis; experiment: Antimycobacterial activity against extensively drug-resistant Mycobacterium tuberculosis isolate 625 obtained from sputum of patient at 100 ug/ml by Bactec MGIT960 modified proportion method; assay type: functional, organism-based
[9] = system: Mycobacterium tuberculosis; experiment: Antimycobacterial activity against extensively drug-resistant Mycobacterium tuberculosis isolate 2911 obtained from sputum of patient at 100 ug/ml by Bactec MGIT960 modified proportion method; assay type: functional, organism-based
[10] = system: Mycobacterium tuberculosis; experiment: Antimycobacterial activity against extensively drug-resistant Mycobacterium tuberculosis isolate 2403 obtained from sputum of patient at 100 ug/ml by Bactec MGIT960 modified proportion method; assay type: functional, organism-based
[11] = system: Mycobacterium tuberculosis; experiment: Antimycobacterial activity against extensively drug-resistant Mycobacterium tuberculosis isolate 2301 obtained from sputum of patient at 100 ug/ml by Bactec MGIT960 modified proportion method; assay type: functional, organism-based
[12] = system: Mycobacterium tuberculosis; experiment: Antimycobacterial activity against extensively drug-resistant Mycobacterium tuberculosis isolate 2403 obtained from sputum of patient at 1 ug/ml by Bactec MGIT960 modified proportion method; assay type: functional, organism-based
[13] = system: Mycobacterium tuberculosis; experiment: Antimycobacterial activity against extensively drug-resistant Mycobacterium tuberculosis H37Rv by CLSI method; assay type: functional
[14] = system: Mycobacterium tuberculosis; experiment: Antimycobacterial activity against extensively drug-resistant Mycobacterium tuberculosis isolate 761 obtained from pus of patient at 1 ug/ml by Bactec MGIT960 modified proportion method; assay type: functional, organism-based
[15] = system: Mycobacterium tuberculosis; experiment: Antimycobacterial activity against extensively drug-resistant Mycobacterium tuberculosis isolate 2474 horboring rpoB H526Y, katG D329A/R463L, gyrA D94G/S95T, rrs A1401G by CLSI method; assay type: functional
[16] = system: Mycobacterium tuberculosis; experiment: Antimycobacterial activity against extensively drug-resistant Mycobacterium tuberculosis isolate 2474 obtained from sputum of patient at 1 ug/ml by Bactec MGIT960 modified proportion method; assay type: functional, organism-based
[17] = system: Mycobacterium tuberculosis; experiment: Antimycobacterial activity against extensively drug-resistant Mycobacterium tuberculosis isolate 625 horboring rpoB S531L/G566R/I569L, katG S315T/R463L, gyrA A90V/S95T, rrs A1401G by CLSI method; assay type: functional
[18] = system: Mycobacterium tuberculosis; experiment: Antimycobacterial activity against extensively drug-resistant Mycobacterium tuberculosis isolate 2911 obtained from sputum of patient at 1 ug/ml by Bactec MGIT960 modified proportion method; assay type: functional, organism-based
[19] = system: Mycobacterium tuberculosis; experiment: Antimycobacterial activity against extensively drug-resistant Mycobacterium tuberculosis isolate 761 horboring rpoB S531L/Q510P, katG S315T/R463L, gyrA D94N/S95T, rrs G1484T by CLSI method; assay type: functional
[20] = system: Mycobacterium tuberculosis; experiment: Antimycobacterial activity against extensively drug-resistant Mycobacterium tuberculosis isolate 2911 horboring rpoB D516V, katG S315T/R463L, gyrA D94G/S95T/R128S/Y129C, rrs A1401G by CLSI method; assay type: functional
[21] = system: Mycobacterium tuberculosis; experiment: Antimycobacterial activity against extensively drug-resistant Mycobacterium tuberculosis isolate 2301 obtained from sputum of patient at 1 ug/ml by Bactec MGIT960 modified proportion method; assay type: functional, organism-based
[22] = system: Mycobacterium tuberculosis; experiment: Antimycobacterial activity against extensively drug-resistant Mycobacterium tuberculosis isolate 2301 horboring rpoB S531L, katG R463L/E217G, gyrA D94N/S95T, rrs A1401G by CLSI method; assay type: functional
[23] = system: Mycobacterium tuberculosis; experiment: Antimycobacterial activity against extensively drug-resistant Mycobacterium tuberculosis isolate 2474 obtained from sputum of patient at 5 ug/ml by Bactec MGIT960 modified proportion method; assay type: functional, organism-based
[24] = system: Mycobacterium tuberculosis; experiment: Antimycobacterial activity against extensively drug-resistant Mycobacterium tuberculosis isolate 2403 obtained from sputum of patient at 5 ug/ml by Bactec MGIT960 modified proportion method; assay type: functional, organism-based
[25] = system: Mycobacterium tuberculosis; experiment: Antimycobacterial activity against extensively drug-resistant Mycobacterium tuberculosis isolate 2911 obtained from sputum of patient at 5 ug/ml by Bactec MGIT960 modified proportion method; assay type: functional, organism-based
[26] = system: Mycobacterium tuberculosis; experiment: Antimycobacterial activity against extensively drug-resistant Mycobacterium tuberculosis isolate 761 obtained from pus of patient at 5 ug/ml by Bactec MGIT960 modified proportion method; assay type: functional, organism-based
[27] = system: Mycobacterium tuberculosis; experiment: Antimycobacterial activity against extensively drug-resistant Mycobacterium tuberculosis isolate 2301 obtained from sputum of patient at 5 ug/ml by Bactec MGIT960 modified proportion method; assay type: functional, organism-based

| Compound | Activity [1] | Activity [2] | Activity [3] | Activity [5] | MIC [13] | MIC [15] | MIC [17] | MIC [19] | MIC [20] | MIC [22] | also measured |
| --- | --- | --- | --- | --- | --- | --- | --- | --- | --- | --- | --- |
| COc1c(N2C[C@@H]3CCCN[C@@H]3C2)c(F)cc2c(=O)c(C(=O)O)cn(C3CC3)c12 | inactive | inactive | inactive | inactive |  |  |  |  |  |  | Activity [4]: inactive |
| C[C@H]1COc2c(N3CCN(C)CC3)c(F)cc3c(=O)c(C(=O)O)cn1c23 | inactive | inactive | inactive | inactive |  |  |  |  |  |  |  |
| NC(=O)c1cnccn1 |  |  |  |  |  |  |  |  |  |  | Activity [6]: inactive; Activity [7]: inactive; Activity [8]: inactive; Activity [9]: Active; Activity [10]: inactive; Activity [11]: inactive |
| NCC[C@H](O)C(=O)N[C@@H]1C[C@H](N)[C@@H](O[C@H]2O[C@H](CN)[C@@H](O)[C@H](O)[C@H]2O)[C@H](O)[C@H]1O[C@H]1O[C@H](CO)[C@@H](O)[C@H](N)[C@H]1O [AMIKACIN] |  |  |  |  | 0.5 µg/mL (≈ 0.854 µM) | >16 µg/mL | >16 µg/mL | 16 µg/mL (≈ 27.3 µM) | >16 µg/mL | >16 µg/mL | Activity [12]: inactive; Activity [14]: inactive; Activity [16]: inactive; Activity [18]: inactive; Activity [21]: inactive |
| N[C@@H]1CONC1=O [CYCLOSERINE] |  |  |  |  | 8 µg/mL (≈ 78.4 µM) | 16 µg/mL (≈ 157 µM) | 16 µg/mL (≈ 157 µM) | >16 µg/mL | 16 µg/mL (≈ 157 µM) | 16 µg/mL (≈ 157 µM) |  |
| CC[C@@H](CO)NCCN[C@@H](CC)CO [ETHAMBUTOL] |  |  |  |  | 1 µg/mL (≈ 4.89 µM) | 4 µg/mL (≈ 19.6 µM) | 4 µg/mL (≈ 19.6 µM) | 8 µg/mL (≈ 39.2 µM) | 4 µg/mL (≈ 19.6 µM) | 2 µg/mL (≈ 9.79 µM) | Activity [23]: inactive; Activity [24]: inactive; Activity [25]: inactive; Activity [26]: Active; Activity [27]: inactive |
